Where only a bound is given, the exact number is not on record here.

For one test, the target named is MAPK14 (human) (UniProt Q16539). The test is described as follows: Inhibition of LPS Stimulated TNF Production by U937 Cells.
MAPK14 (human), sequence (Q16539 whole entry, looked up): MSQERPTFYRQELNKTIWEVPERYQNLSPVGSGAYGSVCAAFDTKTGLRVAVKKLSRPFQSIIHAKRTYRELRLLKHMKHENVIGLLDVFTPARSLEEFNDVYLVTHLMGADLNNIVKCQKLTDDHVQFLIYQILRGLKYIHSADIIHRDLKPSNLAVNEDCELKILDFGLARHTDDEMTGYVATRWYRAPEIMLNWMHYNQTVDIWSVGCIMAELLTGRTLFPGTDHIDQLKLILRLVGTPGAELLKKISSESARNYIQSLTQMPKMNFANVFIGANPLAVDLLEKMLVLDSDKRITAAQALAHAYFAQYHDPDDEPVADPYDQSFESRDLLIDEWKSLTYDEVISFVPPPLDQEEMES
Conditions: not given
What is called IC50 is the point on the concentration scale where inhibition reaches its midpoint. Consider `C[C@@H](NS(=O)(=O)Cc1ccccc1)c1[nH]nc(-c2ccc(F)cc2)c1-c1ccncc1`, for which the IC50 worked out at 50 nM.
The same measure, in the same setting: then `Cn1cc(-c2ccncc2)c(-c2ccc3c(c2)OCO3)n1`, with 322 nM; and `CNC(=O)CC[C@H](NS(=O)(=O)Cc1ccccc1)c1[nH]nc(-c2ccc(F)cc2)c1-c1ccncc1`, with more than 1000 nM.
Compound `Cc1cnccc1-c1cn(C)nc1-c1ccc(F)cc1` returned an IC50 of 757 nM.
Compound `COc1ccc(S(=O)(=O)NCc2[nH]nc(-c3ccc(F)cc3)c2-c2ccncc2)cc1` yielded an IC50 of 1780 nM.
`CCNC(=O)N[C@@H](CCC(=O)NC)c1[nH]nc(-c2ccc(F)cc2)c1-c1ccncc1` returned an IC50 of more than 1000 nM.
`C[C@H](NS(=O)(=O)/C=C/c1ccccc1)c1[nH]nc(-c2ccc(F)cc2)c1-c1ccncc1` showed an IC50 of 590 nM.
`CCCNC(=O)N[C@@H](C)c1[nH]nc(-c2ccc(F)cc2)c1-c1ccncc1` came in with a concentration for half-maximal inhibition (IC50) of 38000 nM.
Still for that read-out and setting: then `C#CCNc1n[nH]c(-c2ccc(F)cc2)c1-c1ccncc1`, with 300 nM; and `O=C(N[C@H](Cc1ccccc1)c1[nH]nc(-c2ccc(F)cc2)c1-c1ccncc1)c1ccccn1`, with more than 1000 nM; and `O=C(Nc1ccccc1F)N1CCC(c2[nH]nc(-c3ccc(F)cc3)c2-c2ccncc2)CC1`, with 92 nM.
For the compound `CNC(=O)CC[C@H](NC(=O)c1ccccc1OC)c1[nH]nc(-c2ccc(F)cc2)c1-c1ccncc1`, the IC50 is more than 1000 nM.
On the same count and under the same terms, next, `COC(=O)c1ccccc1S(=O)(=O)NCc1[nH]nc(-c2ccc(F)cc2)c1-c1ccncc1`: 4850 nM; `C#CCn1cc(-c2ccncc2)c(-c2ccc(F)cc2)n1`: 500 nM; `COc1cc(NC(=O)CCNC(=O)Cn2nc(-c3ccc(F)cc3)c(-c3ccncc3)c2C)cc2ccccc12`: 4220 nM.
In turn, `CN(C)CCCNC(=O)NCCCc1[nH]nc(-c2ccc(F)cc2)c1-c1ccncc1` gave a concentration for half-maximal inhibition (IC50) of more than 1000 nM.
For `CNC(=O)CC[C@H](NC(=O)c1ccccc1F)c1[nH]nc(-c2ccc(F)cc2)c1-c1ccncc1`, the IC50 was more than 1000 nM.
For the compound `O=S(=O)(Cc1ccccc1)NCc1[nH]nc(-c2ccc(F)cc2)c1-c1ccncc1`, the IC50 is 210 nM.
On the same count and under the same terms, then `O=S(=O)(NCc1[nH]nc(-c2ccc(F)cc2)c1-c1ccncc1)c1cccc2ccccc12`, with more than 1000 nM.
On to `CC(C)=CC(=O)N[C@H](Cc1ccccc1)c1[nH]nc(-c2ccc(F)cc2)c1-c1ccncc1`, for which the 50% inhibitory concentration (IC50) is more than 1000 nM.
Consider `NS(=O)(=O)c1ccc(CNC(=O)NCCCc2[nH]nc(-c3ccc(F)cc3)c2-c2ccncc2)cc1`, for which the IC50 is more than 1000 nM.
The same measure, in the same setting: next, `CC(Oc1ccccc1)C(=O)NCc1[nH]nc(-c2ccc(F)cc2)c1-c1ccncc1` (stereo unspecified): 2260 nM; `CN(C)CCn1cc(-c2ccnc(N(C)C)c2)c(-c2ccc(F)cc2)n1`: more than 10000 nM; `O=C(NCc1[nH]nc(-c2ccc(F)cc2)c1-c1ccncc1)c1ccccc1C(F)(F)F`: 3950 nM.
Consider `CN(C)CCn1cc(-c2ccnc(F)c2)c(-c2ccc(F)cc2)n1`, for which the 50% inhibitory concentration (IC50) was determined as 4210 nM.

The test is the same for the next values; noted with them: concentration not given here.
The term inhibition denotes the change of the read-out against control, counted positive when it falls. Consider `CCCOC(=O)N[C@H](C)c1[nH]nc(-c2ccc(F)cc2)c1-c1ccncc1`, for which the inhibition worked out at 54%.
On the same count and under the same terms, next, `C[C@H](NC(=O)c1cccc(Cl)c1)c1[nH]nc(-c2ccc(F)cc2)c1-c1ccncc1`: 39%.
Take `C[C@@H](NC(=O)c1c(F)cccc1F)c1[nH]nc(-c2ccc(F)cc2)c1-c1ccncc1`: the inhibition is 83%.
The same measure, in the same setting: then `C[C@@H](NS(=O)(=O)c1ccc(Cl)c(Cl)c1)c1[nH]nc(-c2ccc(F)cc2)c1-c1ccncc1`, with 98%; and `C[C@H](NC(=O)c1c(Cl)cccc1Cl)c1[nH]nc(-c2ccc(F)cc2)c1-c1ccncc1`, with 35%.
Still for that read-out and setting: then `CC(C)COC(=O)N[C@H](C)c1[nH]nc(-c2ccc(F)cc2)c1-c1ccncc1`, with 32%; and `C[C@H](NS(=O)(=O)c1cc(S(=O)(=O)c2ccccc2)cs1)c1[nH]nc(-c2ccc(F)cc2)c1-c1ccncc1`, with 90%.
`Cc1ccccc1S(=O)(=O)N[C@H](C)c1[nH]nc(-c2ccc(F)cc2)c1-c1ccncc1` registered an inhibition of 92%.
On the same count and under the same terms, next, `C[C@@H](NS(=O)(=O)c1ccc(F)cc1F)c1[nH]nc(-c2ccc(F)cc2)c1-c1ccncc1`: 55%.
On the same count and under the same terms, then `O=C(N[C@H](Cc1ccccc1)c1[nH]nc(-c2ccc(F)cc2)c1-c1ccncc1)C1CCCC1`, with 3%.
Take `C[C@@H](NS(=O)(=O)c1ccccc1)c1[nH]nc(-c2ccc(F)cc2)c1-c1ccncc1`: the inhibition came to 54%.
For the compound `CCS(=O)(=O)N[C@H](C)c1[nH]nc(-c2ccc(F)cc2)c1-c1ccncc1`, the inhibition amounted to 48%.
Same read-out and setting: then `Cn1cnc(S(=O)(=O)NCc2[nH]nc(-c3ccc(F)cc3)c2-c2ccncc2)c1`, with 24%; and `Cc1noc(C)c1C(=O)N[C@H](C)c1[nH]nc(-c2ccc(F)cc2)c1-c1ccncc1`, with 73%.
`C[C@H](NS(=O)(=O)c1cccc(Br)c1)c1[nH]nc(-c2ccc(F)cc2)c1-c1ccncc1`: the inhibition was 79%.
For the compound `Cc1ccc(C)c(S(=O)(=O)N[C@@H](C)c2[nH]nc(-c3ccc(F)cc3)c2-c2ccncc2)c1`, the inhibition was found to be 80%.
On the same count and under the same terms, next, `CC(C)c1cc(C(C)C)c(C(=O)N[C@@H](C)c2[nH]nc(-c3ccc(F)cc3)c2-c2ccncc2)c(C(C)C)c1`: 42%; `C[C@H](NC(=O)c1ccc(F)c(F)c1)c1[nH]nc(-c2ccc(F)cc2)c1-c1ccncc1`: 52%.
Same read-out and setting: next, `O=C(N[C@H](Cc1ccccc1)c1[nH]nc(-c2ccc(F)cc2)c1-c1ccncc1)c1cccnc1`: 38%; `Cc1ccccc1C(=O)NCCc1[nH]nc(-c2ccc(F)cc2)c1-c1ccncc1`: 9%.
Regarding `Cc1cccc(S(=O)(=O)N2CCC(c3[nH]nc(-c4ccc(F)cc4)c3-c3ccncc3)CC2)c1`, the inhibition was determined as 1%.
As to `O=C(NCc1[nH]nc(-c2ccc(F)cc2)c1-c1ccncc1)c1cccc(Br)c1`, the inhibition turned out to be 24%.
Still for that read-out and setting: then `O=C(N[C@H](Cc1ccccc1)c1[nH]nc(-c2ccc(F)cc2)c1-c1ccncc1)[C@@H]1CCCN1`, with 11%; and `Cc1ccc(C)c(S(=O)(=O)NCCCc2[nH]nc(-c3ccc(F)cc3)c2-c2ccncc2)c1`, with 36%; and `COc1ccc(OC)c(S(=O)(=O)N[C@H](C)c2[nH]nc(-c3ccc(F)cc3)c2-c2ccncc2)c1`, with 81%.
Compound `COc1ccc(Cl)cc1S(=O)(=O)N[C@@H](C)c1[nH]nc(-c2ccc(F)cc2)c1-c1ccncc1` displayed an inhibition of 76%.
The same measure, in the same setting: next, `C[C@H](NS(=O)(=O)c1cn(C)cn1)c1[nH]nc(-c2ccc(F)cc2)c1-c1ccncc1`: 74%; `O=C(N[C@H](Cc1ccccc1)c1[nH]nc(-c2ccc(F)cc2)c1-c1ccncc1)c1ccccn1`: 8%.
On the same count and under the same terms, then `COc1cc(NC(=O)NCc2[nH]nc(-c3ccc(F)cc3)c2-c2ccncc2)cc(OC)c1OC`, with 29%; and `COc1ccc(Br)cc1S(=O)(=O)N1CCC(c2[nH]nc(-c3ccc(F)cc3)c2-c2ccncc2)CC1`, with 36%; and `O=C(O)c1ccccc1S(=O)(=O)NCCc1[nH]nc(-c2ccc(F)cc2)c1-c1ccncc1`, with 40%.
Same read-out and setting: then `Cc1ccc(F)cc1S(=O)(=O)NCc1[nH]nc(-c2ccc(F)cc2)c1-c1ccncc1`, with 24%; and `O=C(NCCc1[nH]nc(-c2ccc(F)cc2)c1-c1ccncc1)c1ccc(F)cc1C(F)(F)F`, with 29%; and `C[C@@H](NS(=O)(=O)C(F)(F)F)c1[nH]nc(-c2ccc(F)cc2)c1-c1ccncc1`, with 18%.
In turn, `O=S(=O)(NCCc1[nH]nc(-c2ccc(F)cc2)c1-c1ccncc1)c1ccc(Cl)cc1Cl` registered an inhibition of 31%.
`COc1ccc(NC(=O)NCc2[nH]nc(-c3ccc(F)cc3)c2-c2ccncc2)cc1` returned an inhibition of 31%.
The same measure, in the same setting: next, `O=S(=O)(c1cccc(Cl)c1Cl)N1CCC(c2[nH]nc(-c3ccc(F)cc3)c2-c2ccncc2)CC1`: 22%; `COc1ccc(CC(=O)N[C@H](C)c2[nH]nc(-c3ccc(F)cc3)c2-c2ccncc2)cc1OC`: 28%.
In the case of `COc1ccc(C(=O)NCc2[nH]nc(-c3ccc(F)cc3)c2-c2ccncc2)cc1OC`, the inhibition was 22%.
The compound `C[C@H](NS(=O)(=O)c1cccc2cnccc12)c1[nH]nc(-c2ccc(F)cc2)c1-c1ccncc1` had an inhibition of 75%.
Same read-out and setting: next, `C[C@H](NC(=O)c1ccc(Cl)cc1Cl)c1[nH]nc(-c2ccc(F)cc2)c1-c1ccncc1`: 28%; `COc1ccccc1C(=O)N[C@H](C)c1[nH]nc(-c2ccc(F)cc2)c1-c1ccncc1`: 23%; `C[C@H](NC(=O)c1cccc(Cl)c1Cl)c1[nH]nc(-c2ccc(F)cc2)c1-c1ccncc1`: 17%.
In the case of `O=C(NCCc1[nH]nc(-c2ccc(F)cc2)c1-c1ccncc1)c1ccc(Cl)cc1`, the inhibition amounted to 29%.
Regarding `O=C(NCc1[nH]nc(-c2ccc(F)cc2)c1-c1ccncc1)NC(=O)c1ccccc1`, the inhibition was 28%.
Still for that read-out and setting: next, `O=C(NCc1[nH]nc(-c2ccc(F)cc2)c1-c1ccncc1)c1ccc(Cl)c(Cl)c1`: 31%; `O=S(=O)(c1ccccc1C(F)(F)F)N1CCC(c2[nH]nc(-c3ccc(F)cc3)c2-c2ccncc2)CC1`: 29%; `C[C@@H](NC(=O)c1cccc(F)c1F)c1[nH]nc(-c2ccc(F)cc2)c1-c1ccncc1`: 64%.
The same measure, in the same setting: then `C[C@@H](NC(=O)C(C)(C)C)c1[nH]nc(-c2ccc(F)cc2)c1-c1ccncc1`, with 32%.
`C[C@@H](NC(=O)N1CCOCC1)c1[nH]nc(-c2ccc(F)cc2)c1-c1ccncc1` returned an inhibition of 30%.
Same read-out and setting: then `C[C@@H](NC(=O)Cc1cccs1)c1[nH]nc(-c2ccc(F)cc2)c1-c1ccncc1`, with 33%; and `C[C@H](NC(=O)c1cc(F)cc(C(F)(F)F)c1)c1[nH]nc(-c2ccc(F)cc2)c1-c1ccncc1`, with 36%; and `O=C(NCc1[nH]nc(-c2ccc(F)cc2)c1-c1ccncc1)c1c(Cl)cc(Cl)cc1Cl`, with 100%.
The same measure, in the same setting: then `COc1cccc(CC(=O)N[C@@H](C)c2[nH]nc(-c3ccc(F)cc3)c2-c2ccncc2)c1`, with 14%; and `C[C@H](NS(=O)(=O)c1cccc2nonc12)c1[nH]nc(-c2ccc(F)cc2)c1-c1ccncc1`, with 78%; and `Cc1ccc(F)cc1S(=O)(=O)N[C@@H](C)c1[nH]nc(-c2ccc(F)cc2)c1-c1ccncc1`, with 72%.

The values above are taken from the Kinase Knowledgebase extract (Sharma et al. 2016).
